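Five concentrations, 48 hours, 96-well plates. The concentration for 50% growth inhibition is given as GI50.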 The source made the active and inactive calls. Rule as the data show it: active = GI50 up to about 1.1 µM and inactive = higher.
What was measured:
Assay in all cases: NCI tumour cell line growth inhibition, 48 h
[1] = system: 786-0
[2] = system: A549
[3] = system: ACHN
[4] = system: CAKI-1
[5] = system: CCRF-CEM
[6] = system: COLO 205
[7] = system: DLD-1
[8] = system: DMS-114
[9] = system: DMS-273
[10] = system: EKVX
[11] = system: HCC 2998
[12] = system: HCT-116
[13] = system: HCT-15
[14] = system: HL-60
[15] = system: HOP-18
[16] = system: HOP-62
[17] = system: HOP-92
[18] = system: HT-29
[19] = system: IGROV-1
[20] = system: K562
[21] = system: KM-20L2
[22] = system: KM12
[23] = system: LOX IMVI
[24] = system: LXFL 529
[25] = system: M19-MEL
[26] = system: MOLT-4
[27] = system: Malme-3M
[28] = system: NCI-H226
[29] = system: NCI-H23
[30] = system: NCI-H460
[31] = system: NCI-H522
[32] = system: OVCAR-3
[33] = system: OVCAR-5
[34] = system: OVCAR-8
[35] = system: RXF 393
[36] = system: RXF 631
[37] = system: SF-268
[38] = system: SF-295
[39] = system: SF-539
[40] = system: SK-MEL-28
[41] = system: SK-MEL-2
[42] = system: SK-MEL-5
[43] = system: SK-OV-3
[44] = system: SN12C
[45] = system: SNB-19
[46] = system: SR
[47] = system: SW-620
[48] = system: TK-10
[49] = system: U-251
[50] = system: UACC-257
[51] = system: UACC-62
[52] = system: M14
[53] = system: MDA-N
[54] = system: OVCAR-4
[55] = system: SNB-75
[56] = system: SNB-78
[57] = system: XF498

Cn1c(C2CCCc3c2c2ccccc2n3C)cc2ccccc21 (stereo not given)
GI50 [1]: > 318 µM (inactive) | GI50 [2]: 128 µM (inactive) | GI50 [3]: > 318 µM (inactive) | GI50 [4]: 115 µM (inactive) | GI50 [5]: 140 µM (inactive) | GI50 [6]: 140 µM (inactive) | GI50 [7]: 126 µM (inactive) | GI50 [8]: 34.3 µM (inactive) | GI50 [9]: 57.3 µM (inactive) | GI50 [10]: 115 µM (inactive) | GI50 [11]: 186 µM (inactive) | GI50 [12]: 142 µM (inactive) | GI50 [13]: 43.1 µM | GI50 [14]: 65.5 µM (inactive) | GI50 [15]: 8.02 µM (inactive) | GI50 [16]: 286 µM (inactive) | GI50 [17]: 1.5 µM (inactive) | GI50 [18]: 83 µM (inactive) | GI50 [19]: 31.6 µM (inactive) | GI50 [20]: 74 µM (inactive) | GI50 [21]: 179 µM (inactive) | GI50 [22]: 30.6 µM (inactive) | GI50 [23]: 130 µM (inactive) | GI50 [24]: 121 µM (inactive) | GI50 [25]: 85.5 µM (inactive) | GI50 [26]: 89.5 µM (inactive) | GI50 [27]: 20.5 µM (inactive) | GI50 [28]: 216 µM (inactive) | GI50 [29]: 40.2 µM (inactive) | GI50 [30]: 125 µM (inactive) | GI50 [31]: 40.4 µM (inactive) | GI50 [32]: 36.2 µM (inactive) | GI50 [33]: 136 µM (inactive) | GI50 [34]: > 318 µM (inactive) | GI50 [35]: 95.1 µM (inactive) | GI50 [36]: 126 µM (inactive) | GI50 [37]: 110 µM (inactive) | GI50 [38]: 70 µM (inactive) | GI50 [39]: > 318 µM (inactive) | GI50 [40]: 114 µM (inactive) | GI50 [41]: 85.7 µM (inactive) | GI50 [42]: 72.9 µM (inactive) | GI50 [43]: 100 µM (inactive) | GI50 [44]: 222 µM (inactive) | GI50 [45]: > 318 µM (inactive) | GI50 [46]: 71.9 µM (inactive) | GI50 [47]: 78 µM (inactive) | GI50 [48]: > 318 µM (inactive) | GI50 [49]: 174 µM (inactive) | GI50 [50]: 90.2 µM (inactive) | GI50 [51]: 35.8 µM (inactive)

O=c1[nH]c2ccccc2n1C1CCN(CCCC(c2ccc(F)cc2)c2ccc(F)cc2)CC1 [PIMOZIDE]
GI50 [5]: 5.51 µM (inactive) | GI50 [6]: 1.69 µM (inactive) | GI50 [7]: 5.74 µM (inactive) | GI50 [8]: 2.22 µM (inactive) | GI50 [9]: 3.45 µM (inactive) | GI50 [11]: 1.9 µM (inactive) | GI50 [13]: 3.1 µM | GI50 [14]: 2.37 µM (inactive) | GI50 [15]: 15.6 µM (inactive) | GI50 [16]: 10.7 µM (inactive) | GI50 [17]: 3.9 µM (inactive) | GI50 [18]: 2.55 µM (inactive) | GI50 [19]: 13.9 µM (inactive) | GI50 [20]: 2.88 µM (inactive) | GI50 [21]: 2.01 µM (inactive) | GI50 [24]: 3.73 µM (inactive) | GI50 [52]: 2.7 µM (inactive) | GI50 [25]: 3.81 µM (inactive) | GI50 [53]: 9.77 µM (inactive) | GI50 [26]: 3.67 µM (inactive) | GI50 [27]: 2.05 µM (inactive) | GI50 [31]: 2.81 µM (inactive) | GI50 [54]: 8.59 µM (inactive) | GI50 [33]: 8 µM (inactive) | GI50 [37]: 12.1 µM (inactive) | GI50 [38]: 4.02 µM (inactive) | GI50 [40]: 2.15 µM (inactive) | GI50 [43]: 12.8 µM (inactive) | GI50 [44]: 12.2 µM (inactive) | GI50 [45]: 14.5 µM (inactive) | GI50 [55]: 10.8 µM (inactive) | GI50 [56]: 15.1 µM (inactive) | GI50 [46]: 2.5 µM (inactive) | GI50 [57]: 4.17 µM (inactive)
